Literature values as cited in patent US8350059B2, “Intermediates and methods for making zearalenone macrolide analogs” (Eisai R&D Management Co., Ltd., priority 2007, dated 2013).

Test system: Map/Erk kinase (MEK)
Conditions: background statement

In the case of `COc1cc(O)c2c(c1)/C=C/C[C@H](O)[C@H](O)C(=O)/C=C\C[C@H](C)OC2=O` [F152], the “inhibition of the phosphorylating enzyme Map/Erk kinase (MEK)” value is listed as “inhibit the phosphorylating enzyme Map/Erk kinase (MEK)”.
